Test results from patent publication US10023558B2, “Compounds” (CHIESI FARMACEUTICI S.P.A., priority 2016, dated 2018).

Target: T1, human neutrophil elastase (HNE) (Homo sapiens, UniProt P08246)
T1 construct: purchased Sigma E8140
T1 sequence (P08246 30-247 limits assumed): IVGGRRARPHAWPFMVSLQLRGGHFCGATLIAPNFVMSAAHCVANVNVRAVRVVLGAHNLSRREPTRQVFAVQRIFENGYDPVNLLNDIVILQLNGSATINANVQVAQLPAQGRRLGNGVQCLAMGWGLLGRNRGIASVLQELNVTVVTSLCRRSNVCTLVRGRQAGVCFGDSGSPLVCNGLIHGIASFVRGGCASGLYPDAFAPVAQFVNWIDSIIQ
Test: HNE Enzyme Assay (fluorogenic peptide substrate MeOSuc-Ala-Ala-Pro-Val-AMC)
Format: biochemical
Details: human leukocyte elastase 0.00072 U/mL, substrate 100 μM, 25° C., 30 minutes, at least two separate experiments; read-out: HNE inhibition (IC50 values)
Description: Compounds of this invention were tested for potency in a human neutrophil elastase (HNE) enzyme activity assay.
Assays were performed in 96-well plates in a total assay volume of 100 μL. The final concentration of elastase enzyme (human leukocyte elastase, Sigma E8140) was 0.00072 U/mL. The peptide substrate (MeOSuc-Ala-Ala-Pro-Val-AMC, Calbiochem #324740) was used at a final concentration of 100 μM. The final concentration of DMSO was 1% in the assay buffer (0.05M Tris.HCl, 0.1M NaCl, 0.1M CaCl2, 0.0005% Brij-35, pH 7.5). The enzymatic reaction was started by addition of the enzyme and incubated at 25° C. for 30 minutes. After incubation, the reaction was stopped by addition of soybean trypsin inhibitor (Sigma T9003) at a final concentration of 50 μg/well. Fluorescence was measured using a Molecular Devices fluorescence plate reader using 380 nm excitation and 460 nm emission wavelengths.
A concentration response to each compound was performed and the effect of compound in each experiment was expressed as a percentage inhibition of the control enzyme fluorescence. Dose response curves were plotted and compound potency (IC50) was determined. Compounds were tested in at least two separate experiments.

SMILES | IC50 [nM]
Cc1c(-c2ccnn2-c2ccc(C#N)cc2)n(C(=O)N[C@@H](C)c2ncc(CN(C)C)o2)c(=O)n1-c1cccc(C(F)(F)F)c1 [Example 16, 5-[2-(4-Cyano-phenyl)-2H-pyrazol-3-yl]-4-methyl-2-oxo-3-(3-trifluoromethyl-phenyl)-2,3-dihydro-imidazole-1-carboxylic acid [(S)-1-(5-dimethylaminomethyl-oxazol-2-yl)-ethyl]-amide] | < 1
Cc1c(-c2ccnn2-c2ccc(C#N)cc2)n(C(=O)NC2CCN(C(=O)CN(C)C)CC2)c(=O)n1-c1cccc(C(F)(F)F)c1 [Example 17, 5-[2-(4-Cyano-phenyl)-2H-pyrazol-3-yl]-4-methyl-2-oxo-3-(3-trifluoromethyl-phenyl)-2,3-dihydro-imidazole-1-carboxylic acid [1-(2-dimethylamino-acetyl)-piperidin-4-yl]-amide] | < 1
Cc1c(-c2ccnn2-c2ccc(C#N)cc2)n(C(=O)N[C@@H](C)C(=O)N(C)CC2CCN(C)CC2)c(=O)n1-c1cccc(C(F)(F)F)c1 [Example 18, 5-[2-(4-Cyano-phenyl)-2H-pyrazol-3-yl]-4-methyl-2-oxo-3-(3-trifluoromethyl-phenyl)-2,3-dihydro-imidazole-1-carboxylic acid {(S)-1-[methyl-(1-methyl-piperidin-4-ylmethyl)-carbamoyl]-ethyl}-amide] | < 1
Cc1c(-c2ccnn2-c2ccc(C#N)cc2)n(C(=O)N[C@@H](C)C(=O)N2CCC(N(C)C)CC2)c(=O)n1-c1cccc(C(F)(F)F)c1 [Example 19, 5-[2-(4-Cyano-phenyl)-2H-pyrazol-3-yl]-4-methyl-2-oxo-3-(3-trifluoromethyl-phenyl)-2,3-dihydro-imidazole-1-carboxylic acid [(S)-2-(4-dimethylamino-piperidin-1-yl)-1-methyl-2-oxo-ethyl]-amide] | < 1
Cc1c(-c2ccnn2-c2ccc(C#N)cc2)n(C(=O)N[C@@H](C)C(=O)N(C)CCN(C)C)c(=O)n1-c1cccc(C(F)(F)F)c1 [Example 20, 5-[2-(4-Cyano-phenyl)-2H-pyrazol-3-yl]-4-methyl-2-oxo-3-(3-trifluoromethyl-phenyl)-2,3-dihydro-imidazole-1-carboxylic acid {(S)-1-[(2-dimethylamino-ethyl)-methyl-carbamoyl]-ethyl}-amide] | < 1
Cc1c(-c2ccnn2-c2ccc(C#N)cc2)n(C(=O)N[C@H](c2ncc(CN(C)C)o2)C(C)C)c(=O)n1-c1cccc(C(F)(F)F)c1 [Example 21, 5-[2-(4-Cyano-phenyl)-2H-pyrazol-3-yl]-4-methyl-2-oxo-3-(3-trifluoromethyl-phenyl)-2,3-dihydro-imidazole-1-carboxylic acid [(S)-1-(5-dimethylaminomethyl-oxazol-2-yl)-2-methyl-propyl]-amide] | < 1
CC[C@H](NC(=O)n1c(-c2ccnn2-c2ccc(C#N)cc2)c(C)n(-c2cccc(C(F)(F)F)c2)c1=O)c1ncc(CN(C)C)o1 [Example 22, 5-[2-(4-Cyano-phenyl)-2H-pyrazol-3-yl]-4-methyl-2-oxo-3-(3-trifluoromethyl-phenyl)-2,3-dihydro-imidazole-1-carboxylic acid [(S)-1-(5-dimethylaminomethyl-oxazol-2-yl)-propyl]-amide] | < 1
Cc1c(-c2ccnn2-c2ccc(C#N)cc2)n(C(=O)NC2(c3ncc(CN(C)C)o3)CC2)c(=O)n1-c1cccc(C(F)(F)F)c1 [Example 23, 5-[2-(4-Cyano-phenyl)-2H-pyrazol-3-yl]-4-methyl-2-oxo-3-(3-trifluoromethyl-phenyl)-2,3-dihydro-imidazole-1-carboxylic acid [1-(5-dimethylaminomethyl-oxazol-2-yl)-cyclopropyl]-amide] | < 1
Cc1c(-c2ccnn2-c2ccc(C#N)cc2)n(C(=O)NC(C)(C)c2ncc(CN(C)C)o2)c(=O)n1-c1cccc(C(F)(F)F)c1 [Example 24, 5-[2-(4-Cyano-phenyl)-2H-pyrazol-3-yl]-4-methyl-2-oxo-3-(3-trifluoromethyl-phenyl)-2,3-dihydro-imidazole-1-carboxylic acid [1-(5-dimethylaminomethyl-oxazol-2-yl)-1-methyl-ethyl]-amide] | < 1
Cc1c(-c2ccnn2-c2ccc(C#N)cc2)n(C(=O)NC2(C)CCN(C(=O)CN(C)C)CC2)c(=O)n1-c1cccc(C(F)(F)F)c1 [Example 25, 5-[2-(4-Cyano-phenyl)-2H-pyrazol-3-yl]-4-methyl-2-oxo-3-(3-trifluoromethyl-phenyl)-2,3-dihydro-imidazole-1-carboxylic acid [1-(2-dimethylamino-acetyl)-4-methyl-piperidin-4-yl]-amide] | < 1
Cc1c(-c2ccnn2-c2ccc(C#N)cc2)n(C(=O)N[C@H]2CC[C@H](NC(=O)CN(C)C)CC2)c(=O)n1-c1cccc(C(F)(F)F)c1 [Example 26, 5-[2-(4-Cyano-phenyl)-2H-pyrazol-3-yl]-4-methyl-2-oxo-3-(3-trifluoromethyl-phenyl)-2,3-dihydro-imidazole-1-carboxylic acid [trans-4-(2-dimethylamino-acetylamino)-cyclohexyl]-amide] | < 1
Cc1c(-c2ccnn2-c2ccc(C#N)cc2)n(C(=O)N[C@H]2CC[C@H](CNC(=O)CN(C)C)CC2)c(=O)n1-c1cccc(C(F)(F)F)c1 [Example 27, 5-[2-(4-Cyano-phenyl)-2H-pyrazol-3-yl]-4-methyl-2-oxo-3-(3-trifluoromethyl-phenyl)-2,3-dihydro-imidazole-1-carboxylic acid {trans-4-[(2-dimethylamino-acetylamino)-methyl]-cyclohexyl}-amide] | < 1
Cc1c(-c2ccnn2-c2ccc(C#N)cc2)n(C(=O)N[C@@H](C)C(=O)N(C)C2CCN(C)CC2)c(=O)n1-c1cccc(C(F)(F)F)c1 [Example 28, 5-[2-(4-Cyano-phenyl)-2H-pyrazol-3-yl]-4-methyl-2-oxo-3-(3-trifluoromethyl-phenyl)-2,3-dihydro-imidazole-1-carboxylic acid {(S)-1-[methyl-(1-methyl-piperidin-4-yl)-carbamoyl]-ethyl}-amide] | < 1
Cc1c(-c2ccnn2-c2ccc(C#N)cc2)n(C(=O)N[C@H]2CC[C@H](C[N+](C)(C)C)CC2)c(=O)n1-c1cccc(C(F)(F)F)c1 [Example 29, (Trans-4-{[5-[2-(4-cyano-phenyl)-2H-pyrazol-3-yl]-4-methyl-2-oxo-3-(3-trifluoromethyl-phenyl)-2,3-dihydro-imidazole-1-carbonyl]-amino}-cyclohexylmethyl)-trimethyl-ammonium benzene sulfonate] | < 1
Cc1c(-c2ccnn2-c2ccc(C#N)cc2)n(C(=O)N[C@H]2CC[C@H](C[N+](C)(C)Cc3ccccc3)CC2)c(=O)n1-c1cccc(C(F)(F)F)c1 [Example 30, Benzyl-(trans-4-{[5-[2-(4-cyano-phenyl)-2H-pyrazol-3-yl]-4-methyl-2-oxo-3-(3-trifluoromethyl-phenyl)-2,3-dihydro-imidazole-1-carbonyl]-amino}-cyclohexylmethyl)-dimethyl-ammonium bromide] | < 1
CC[N+](C)(C)C[C@H]1CC[C@H](NC(=O)n2c(-c3ccnn3-c3ccc(C#N)cc3)c(C)n(-c3cccc(C(F)(F)F)c3)c2=O)CC1 [Example 31, (Trans-4-{[5-[2-(4-cyano-phenyl)-2H-pyrazol-3-yl]-4-methyl-2-oxo-3-(3-trifluoromethyl-phenyl)-2,3-dihydro-imidazole-1-carbonyl]-amino}-cyclohexylmethyl)-ethyl-dimethyl-ammonium benzene sulfonate] | < 1
Cc1c(-c2ccnn2-c2ccc(C#N)cc2)n(C(=O)NC2CC[N+](C)(C)CC2)c(=O)n1-c1cccc(C(F)(F)F)c1 [Example 32, 4-{[5-[2-(4-Cyano-phenyl)-2H-pyrazol-3-yl]-4-methyl-2-oxo-3-(3-trifluoromethyl-phenyl)-2,3-dihydro-imidazole-1-carbonyl]-amino}-1,1-dimethyl-piperidinium benzenesulfonate] | < 1
Cc1c(-c2ccnn2-c2ccc(C#N)cc2)n(C(=O)N[C@@H]2CC[N+](C)(C)C2)c(=O)n1-c1cccc(C(F)(F)F)c1 [Example 33, (R)-3-{[5-[2-(4-Cyano-phenyl)-2H-pyrazol-3-yl]-4-methyl-2-oxo-3-(3-trifluoromethyl-phenyl)-2,3-dihydro-imidazole-1-carbonyl]-amino}-1,1-dimethyl-pyrrolidinium benzenesulfonate] | 1 to 10
Cc1c(-c2ccnn2-c2ccc(C#N)cc2)n(C(=O)N[C@H]2CC[N+](C)(C)C2)c(=O)n1-c1cccc(C(F)(F)F)c1 [Example 34, (S)-3-{[5-[2-(4-Cyano-phenyl)-2H-pyrazol-3-yl]-4-methyl-2-oxo-3-(3-trifluoromethyl-phenyl)-2,3-dihydro-imidazole-1-carbonyl]-amino}-1,1-dimethyl-pyrrolidinium benzenesulfonate] | < 1
